Results as given in patent US20180296639A1, “THERAPEUTIC PEPTIDES” (Hoffmann-La Roche Inc., priority 2015, published 2018).

Columns and labels:
[1] = system: Siah1; test: Siah1 total protein western blot in hRP; format: cell-based, human; details: 25 mM D-glucose 48 hrs vs 25 mM L-glucose
Experimental: HRP were treated with normal glucose (5 mM D-glucose), osmotic control (25 mM L-glucose) or high glucose (25 mM D-glucose) for 48 hrs. Siah1 total protein increased 2-fold in cultures treated with high glucose compared to those treated with the osmotic control (p=0.0136). There was no significant difference between osmotic control and normal glucose treated cells (FIG. 1A).
Nuclear Fractionation and Western Blot Analysis: HRP were treated as necessary. Cells were harvested using TrypLE Express (Life Technologies), and lysed using radioimmunoprecipitation assay (RIPA) buffer (Qiagen; Limburg, Netherlands). The NE-PER nuclear and cytoplasmic extraction reagents (Thermo Scientific; Nashville, Tenn.) were used to separate lysates into cytosolic and nuclear fractions. Samples were equilibrated for total protein concentration, subjected to 10% SDS/PAGE, and gels were transferred to nitrocellulose membranes using the iBlot system (Life Technologies). […] (β-actin was used to determine total protein concentration. Membranes were incubated in Pierce ECL western blotting substrate and developed using ChemiDoc MP (Bio-Rad; Hercules, Calif.). At least three independent experiments were used to generate western blot quantification graphs. Blots were quantified using the ImageJ 1.47v software.

[2] = system: human retinal pericytes (hRP); test: Apoptosis measurement by caspase-3 enzymatic activity in hRP; format: cell-based; details: 25 mM D-glucose for 72 hrs
Experimental: HRP were treated with normal glucose, L-glucose or high glucose for 48 hrs-72 hrs. […] Furthermore, GAPDH and Siah1 blocking peptides inhibited high glucose-induced hRP apoptosis (FIG. 5D Control Peptide p=0.0019, GAPDH peptide p=0.0090, Siah1 peptide p=0.0053).
(§1) HRP Treatment: Primary cultures of human retinal pericytes (hRP) (Cell Systems; Kirkland, Wash.) were seeded into tissue culture flasks coated with attachment factor (Cell Signaling; Danvers, Mass.). HRP were grown and cultured in Dulbecco's modified Eagle's medium normal glucose (5.5 mM DMEM 1×, Life Technologies; Carlsbad, Calif.) supplemented with 10% FBS, and cell growth supplements, including antibiotics (Lonza; Basel). All cultures were incubated at 37° C., 5% CO2 and 95% relative humidity (20.9% oxygen). Passages 5 to 7 were used for all experiments. HRP identity was confirmed by immunoreactivity of neuron glial 2 (NG2) (EMD Millipore; Temecula, Calif.). […] A FLAG tag peptide sequence enables detection and quantification of these peptides (FIG. 12).
Apoptosis Measurements: All apoptosis measurements were taken after 72 hrs of appropriate treatment. […] Samples were quantified using flow cytometry analysis performed at Vanderbilt's Flow Cytometry Shared Resource core laboratory. […] Activity was quantified using the EnzChek Caspase-3 Assay Kit (Life Technologies). […] Fluorescence emission at 440 nm was measured 2 hrs later.

[3] = biological target: T1, GAPDH/Siah1 association (Homo sapiens, UniProt P04406+Q8IUQ4); test: Co-immunoprecipitation (pull down) of GAPDH/Siah1 association in hRP; format: cell-based; details: high glucose 25 mM 48 hrs vs L-glucose 25 mM
T1 construct: immunoprecipitation (IP) with anti-Siah1, followed by western blot (WB) analysis of the immuno-complexes with anti-GAPDH; endogenous in cells; host or cells: primary human retinal pericytes (hRP), Cell Systems
T1 sequence (Q8IUQ4 whole entry): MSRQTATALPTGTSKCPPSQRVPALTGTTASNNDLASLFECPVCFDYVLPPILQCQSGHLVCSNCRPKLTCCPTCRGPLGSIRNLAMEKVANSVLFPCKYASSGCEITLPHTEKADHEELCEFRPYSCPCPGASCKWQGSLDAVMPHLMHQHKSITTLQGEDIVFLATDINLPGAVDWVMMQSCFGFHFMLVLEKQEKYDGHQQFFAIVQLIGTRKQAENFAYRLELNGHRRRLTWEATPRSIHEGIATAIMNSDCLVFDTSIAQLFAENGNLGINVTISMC
T1 sequence (P04406 2-335 limits assumed): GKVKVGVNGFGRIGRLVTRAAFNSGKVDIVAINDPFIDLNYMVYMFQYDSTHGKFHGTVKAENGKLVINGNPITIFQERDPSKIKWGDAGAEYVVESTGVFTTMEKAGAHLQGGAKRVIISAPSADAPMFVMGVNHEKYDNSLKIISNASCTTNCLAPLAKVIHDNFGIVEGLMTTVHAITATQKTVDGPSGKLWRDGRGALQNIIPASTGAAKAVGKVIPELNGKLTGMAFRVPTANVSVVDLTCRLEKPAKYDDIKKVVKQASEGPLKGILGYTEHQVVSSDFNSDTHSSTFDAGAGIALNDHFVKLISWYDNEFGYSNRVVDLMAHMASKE
Experimental: HRP were treated with normal glucose (5 mM), high glucose (25 mM) or L-glucose (25 mM) for 48 hrs.
HRP were treated with normal, osmotic control or high glucose plus 10 μM negative control siRNA, 10 μM Siah1-directed siRNA, 1 μM TAT-FLAG Control, 1 μM TAT-FLAG GAPDH peptide, 1 μM TAT-FLAG Siah1 peptide or 1 μM GAPDH+1 μM Siah1 peptides. Pull down assays were performed as described above. Our GAPDH peptide was designed to block the GAPDH binding site on Siah1 and the Siah1 peptide was designed to block the Siah1 binding site on GAPDH (Supplemental Table 1).
as §1, with “12). […]” for “12).”

O=C[C@H](O)[C@@H](O)[C@H](O)[C@H](O)CO [high glucose, D-glucose]
increase of Siah1 total protein vs osmotic control [1]: 2 fold | increase in caspase-3-enzymatic activity [2]: 3 fold | increase in GAPDH/Siah1 association vs osmotic control [3]: 1.5 fold
